{"source": "the supplement of paper PMC10307832", "assay_in_all_cases": "relative viability (nuclei count vs DMSO), 5 days (fraction); higher = more cells survive", "key": {"[1]": {"compound": "CCC1=CN=CN=C1N2CCN(CC2)CC3=NC4=C(N3)C=C(C=C4)C(F)(F)F + C[C@@H](Oc1cc(-c2cnn(C3CCNCC3)c2)cnc1N)c1c(Cl)ccc(F)c1Cl [Crizotinib] (partner 1 µM)", "method_in_brief": "(§1)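 A single step with final 0.05% Triton X-100, 1% formaldehyde and 1 ug/ml Hoechst fixed the cells and stained nuclei 5 days after treatment. Lung cancer cell lines in 1536-well plates had been treated by pin tool the day after seeding with one drug alone or a fixed anchor-drug dose plus five library-drug doses (not always all listed) in √10 steps, and nuclei were counted on 4× images. Relative viability is the ratio of nuclei in treated wells to nuclei in vehicle wells, taken as the median of duplicate plates.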"}, "[2]": {"compound": "N=C1NC(=O)/C(=C/c2ccc(O)cc2)S1 [Mirin] + CS(=O)(=O)N1CCN(Cc2cc3nc(-c4cccc5[nH]ncc45)nc(N4CCOCC4)c3s2)CC1 [Pictilisib] (partner 1 µM)", "method_in_brief": "as §1"}, "[3]": {"compound": "N=C1NC(=O)/C(=C/c2ccc(O)cc2)S1 [Mirin] + Nc1nc2[nH]cc(CCc3ccc(C(=O)N[C@@H](CCC(=O)O)C(=O)O)cc3)c2c(=O)[nH]1 [Pemetrexed] (partner 0.2 µM)", "method_in_brief": "as §1"}, "[4]": {"compound": "N=C1NC(=O)/C(=C/c2ccc(O)cc2)S1 [Mirin] + CCNC(=O)c1noc(-c2cc(C(C)C)c(O)cc2O)c1-c1ccc(CN2CCOCC2)cc1 [Luminespib] (partner 0.01 µM)", "method_in_brief": "as §1"}}}
{"cell line": "UMC-11", "values": [{"measurement": "relative viability", "setting": "[1]; first compound 0.04 µM", "result": 0.572}, {"measurement": "relative viability", "setting": "[1]; first compound 0.1265 µM", "result": 0.611}, {"measurement": "relative viability", "setting": "[1]; first compound 0.4 µM", "result": 0.621}, {"measurement": "relative viability", "setting": "[1]; first compound 1.265 µM", "result": 0.615}, {"measurement": "relative viability", "setting": "[1]; first compound 4 µM", "result": 0.906}, {"measurement": "relative viability", "setting": "[2]; first compound 0.25 µM", "result": 0.798}, {"measurement": "relative viability", "setting": "[2]; first compound 0.7906 µM", "result": 0.164}, {"measurement": "relative viability", "setting": "[2]; first compound 2.5 µM", "result": 0.849}, {"measurement": "relative viability", "setting": "[2]; first compound 7.906 µM", "result": 0.509}, {"measurement": "relative viability", "setting": "[2]; first compound 25 µM", "result": 0.4}, {"measurement": "relative viability", "setting": "[3]; first compound 0.25 µM", "result": 0.787}, {"measurement": "relative viability", "setting": "[3]; first compound 0.7906 µM", "result": 0.74}, {"measurement": "relative viability", "setting": "[3]; first compound 2.5 µM", "result": 0.92}, {"measurement": "relative viability", "setting": "[3]; first compound 7.906 µM", "result": 0.691}, {"measurement": "relative viability", "setting": "[3]; first compound 25 µM", "result": 0.568}, {"measurement": "relative viability", "setting": "[4]; first compound 0.25 µM", "result": 1.09}, {"measurement": "relative viability", "setting": "[4]; first compound 0.7906 µM", "result": 0.983}, {"measurement": "relative viability", "setting": "[4]; first compound 2.5 µM", "result": 1.01}, {"measurement": "relative viability", "setting": "[4]; first compound 7.906 µM", "result": 0.826}, {"measurement": "relative viability", "setting": "[4]; first compound 25 µM", "result": 0.695}]}
